US20230141718A1, “METHODS OF TREATING GLIOBLASTOMA” (CELGENE QUANTICEL RESEARCH, INC., priority 2021, published 2023)

Tests used:
[1] = tested on: HEXIM1 (hexamethylene bis-acetamide-inducible protein 1) mRNA; test: Blood and tumor HEXIM1 mRNA pharmacodynamics, CC-90010-GBM-001; format: in vivo, human
Procedure: The primary objectives of the study in this example were determination of tumor tissue concentration and plasma pharmacokinetics (PK) of Compound A. The secondary and exploratory objectives included safety, antitumor activity, cerebrospinal fluid concentration, and pharmacodynamics (PD).
Patients were treated with Compound A at 30 mg daily on Day 1 to Day 4 prior to undergoing indicated tumor resection and to maintain platelet count above the minimum of […] recommended for surgery (Part A, preoperative treatment). Following recovery from surgery and a minimum of 4 weeks from the first dose of Compound A, subjects who were fit to continue were treated with Compound A at 45 mg on a 4 days on/24 days off schedule (180 mg per 28-day cycle). Maintenance treatment continued until disease progression, unacceptable toxicity, or withdrawal of consent.
Blood HEXIM1 (hexamethylene bis-acetamide-inducible protein 1) mRNA was increased at 72-96 hours following first dose, and the percentage increase correlated with plasma concentration of Compound A at surgery. Tumor HEXIM1 RNA increased in 10 of 11 patients. Additionally, blood HEXIM1 mRNA expression was increased in all subjects at 72-96 hours following the first dose. Percentage HEXIM1 increase was related to plasma Compound A concentration at biopsy.

newly diagnosed GBM = test: Efficacy (duration of treatment, PFS, best overall response), CC-90010-GBM-002 Part A; format: in vivo, human
Source text: The Response Assessment in Neuro-Oncology criteria (RANO) is used to assess response to first-line treatment of glioblastoma. See, Leao, D. J. et al., American Journal of Neuroradiology 2019, 1-11. The RANO criteria divides response into four types of response based on imaging (MRI) and clinical features: (1) complete response (CR); (2) partial response (PR); (3) stable disease (SD); and (4) progression. For this assessment, a measurable disease is defined as bidimensional contrast-enhancing lesions with clearly defined margins, with 2 perpendicular diameters of at least 10 mm, visible on ≥2 axial slices. The nonmeasurable disease is defined as either unidimensional measurable lesions, masses with margins not clearly defined as frequently noted in the surgical margins, or lesions with maximal perpendicular diameters of <10 mm.
The study described in this example (CC-90010-GBM-002/NCT04324840) is a phase 1B dose-finding study investigating standard of care of Compound A in combination with TMZ with or without radiotherapy (RT) in subjects with newly diagnosed GBM. Part A of the study is escalating the oral doses of Compound A in combination with adjuvant TMZ to estimate the MTD and/or the RP2D of Compound A as adjuvant therapy and escalating the oral doses of Compound A in combination with concomitant TMZ+radiotherapy (RT) to estimate the MTD and/or the RP2D of Compound A as concomitant therapy. Part B of the study is the safety and efficacy of Compound A administered at or below the MTD determined for the adjuvant therapy (AT) and concomitant therapy (CT).
For adjuvant therapy, Compound A and TMZ was administered for 6 cycles, then Compound A as a monotherapy was administered in 28-day cycles until disease progression, start of a new anticancer therapy, or withdrawal of consent or physician's decision. For adjuvant therapy, Compound A was administered at 15, 30, and 45 mg 4 days on/24 days off and TMZ was administered at 150 or 200 mg/m^2 QD Days 1-5, followed by Compound A at 45 mg 4 days on/24 days off. For adjuvant therapy, part B, Compound A was administered at RP2D and TMZ was administered at 150 or 200 mg/m^2, followed by Compound A at 45 mg 4 days on/24 days off.
For concomitant therapy, Compound A, TMZ, and RT were administered for 6 weeks, then 4-week break, followed by adjuvant Compound A and TMZ for 6 cycles then Compound A monotherapy in 28-day cycles until disease progression, start of a new anticancer therapy, withdrawal of consent or physician's decision. For concomitant therapy, part A, Compound A was administered at 15 mg or 30 mg QD Days 1-4 (weeks 1,5), TMZ was administered at 75 mg/m^2/day QD, and RT was administered at 2 Gy QD×5 days/week, for 42 days. This was then followed by a break in treatment therapy, e.g., from 1 to up to 4 weeks. Thereafter, adjuvant therapy was initiated by administering Compound A at 30 mg or 45 mg and TMZ at 150 or 200 mg/m^2 QD Days 1-5 of a 28-day cycle. Adjuvant therapy cycles were repeated from 2 to 6 times. After adjuvant therapy, was a monotherapy treatment. Monotherapy comprised administering Compound A at 45 mg 4 days on/24 days off.
For Part A, eighteen patients were enrolled in the adjuvant cohort and received adjuvant Compound A 15 mg/day (n=5), 30 mg/day (n=6), or 45 mg/day (n=7) 4 days on/24 days off plus TMZ followed by Compound A monotherapy 45 mg/day 4 days on/24 days off. Fourteen patients were enrolled in the concomitant cohort and received concomitant Compound A 15 mg/day (n=6) or 30 mg/day (n=8) 4 days on/24 days off in combination with TMZ and RT, followed by adjuvant Compound A 30 mg/day 4 days on/24 days off and Compound A monotherapy 45 mg/day 4 days on/24 days off. The demographics and characteristics of treated patients are described in the below table.

**Q.** For `Cn1cc(-c2cc(S(C)(=O)=O)ccc2OCC2CC2)c2ccccc2c1=O` [Compound A, 4-[2-(cyclopropylmethoxy)-5-methylsulfonylphenyl]-2-methylisoquinolin-1-one], which “Blood HEXIM1 mRNA change” value ([1]; 72-96 hours following first dose) is on record?
**A.** increased

**Q.** What about the “HEXIM1 mRNA increased in resected brain tumor tissue versus archival tissue, patients” value ([1]; group P=0.00093) of the same compound?
**A.** 15 of 18

**Q.** What about the “Tumor HEXIM1 RNA increased, patients” value ([1]; tumor) of the same compound?
**A.** 10 of 11

**Q.** What about the “best overall response: CR” value (newly diagnosed GBM; adjuvant cohort) of the same compound?
**A.** 6%

**Q.** What about the “best overall response: NE” value (newly diagnosed GBM; adjuvant cohort) of the same compound?
**A.** 6%

**Q.** And the “best overall response: PD” value (newly diagnosed GBM; adjuvant cohort)?
**A.** 11%

**Q.** What about the “best overall response: SD” value (newly diagnosed GBM; adjuvant cohort) of the same compound?
**A.** 78%

**Q.** What about the “median PFS” value (newly diagnosed GBM; adjuvant cohort, 95% CI 3.9-NE) of the same compound?
**A.** 7.7 months

**Q.** What about the “progression-free survival (PFS) rate at 6 months” value (newly diagnosed GBM; adjuvant cohort, 95% CI 31.1-77.3) of the same compound?
**A.** 57.8%

**Q.** And the “best overall response: CR” value (newly diagnosed GBM; concomitant cohort)?
**A.** 7%

**Q.** What about the “best overall response: NE” value (newly diagnosed GBM; concomitant cohort) of the same compound?
**A.** 7%

**Q.** What about the “best overall response: PD” value (newly diagnosed GBM; concomitant cohort) of the same compound?
**A.** 7%

**Q.** What about the “best overall response: SD” value (newly diagnosed GBM; concomitant cohort) of the same compound?
**A.** 79%

**Q.** What about the “median PFS” value (newly diagnosed GBM; concomitant cohort, 95% CI 5.2-14.0) of the same compound?
**A.** 12.3 months

**Q.** And the “PFS rate at 6 months” value (newly diagnosed GBM; concomitant cohort, 95% CI 37.3-87.2)?
**A.** 69.2%
